Assay results as given in PubChem BioAssay (NCI).
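Method: 48-hour compound exposure of cells in 96-well plates, five concentrations, linear interpolation of endpoints. The concentration for 50% growth inhibition is given as GI50. Definition used: TGI = concentration required for complete inhibition of growth.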

Experiments:
Assay in all cases: NCI-60 cell line screen, 48 h
MDA-MB-231 breast = tested on: MDA-MB-231 breast
CCRF-CEM leukemia = tested on: CCRF-CEM leukemia
PC-3 prostate = tested on: PC-3 prostate
RXF 393 renal = tested on: RXF 393 renal
HOP-92 NSCLC = tested on: HOP-92 NSCLC
K-562 leukemia = tested on: K-562 leukemia
ACHN renal = tested on: ACHN renal
SN12C renal = tested on: SN12C renal
HCT-15 colon = tested on: HCT-15 colon
UACC-62 melanoma = tested on: UACC-62 melanoma

Row | Compound | GI50 (MDA-MB-231 breast) [nM] | TGI (MDA-MB-231 breast) [µM] | GI50 (CCRF-CEM leukemia) [nM] | TGI (CCRF-CEM leukemia) [µM] | GI50 (PC-3 prostate) [nM] | TGI (PC-3 prostate) [µM] | GI50 (RXF 393 renal) [nM] | TGI (RXF 393 renal) [µM] | GI50 (HOP-92 NSCLC) [nM] | TGI (HOP-92 NSCLC) [µM] | GI50 (K-562 leukemia) [µM] | TGI (K-562 leukemia) [µM] | GI50 (ACHN renal) [nM] | TGI (ACHN renal) [µM] | GI50 (SN12C renal) [nM] | TGI (SN12C renal) [µM] | GI50 (HCT-15 colon) [nM] | TGI (HCT-15 colon) [µM] | GI50 (UACC-62 melanoma) [nM] | TGI (UACC-62 melanoma) [µM]
1 | O=c1[nH]cnc2c1nnn2[C@@H]1O[C@H](CO)[C@@H](O)[C@H]1O | 7680 | > 100 | 1340 | > 100 | 2770 | > 100 | 4310 | > 100 | 2330 | > 100 | 3.7 | > 100 | 2870 | > 100 | 6400 | > 100 | 2800 | > 100 | 5750 | 84.4
2 | N#Cc1c(N)nc(N2CCOCC2)c(C#N)c1-c1cccc(O)c1 | 71200 | > 100 | > 100000 | > 100 | 46900 | > 100 | 38100 | 95.1 | 37600 | > 100 | > 100 | > 100 | – | – | 69000 | > 100 | 67000 | > 100 | 40800 | > 100
3 | CCCCCCCCO/N=C\c1c2c(O)c3c(O)c(C)c4c(c3c1O)C(=O)C(C)(O/C=C\C(OC)C(C)C(OC(C)=O)C(C)C(O)C(C)C(O)C(C)/C=C\C=C(\C)C(=O)N2)O4 (stereo unspecified) | 1630 | 5.91 | 1950 | 9.82 | 1820 | 7.02 | 1140 | 3.18 | 1380 | 5.32 | – | – | 1780 | 6.58 | 2390 | 9.22 | 1790 | 6.81 | 1020 | 2.92
4 | Cc1ccc(-c2nc3nc(-c4ccc(Cl)cc4)nc(N4CCCNCC4)c3o2)cc1 | 1830 | 3.37 | 700 | 2.91 | 1600 | 3.14 | 1580 | 3.03 | 1360 | 2.91 | – | – | 1710 | 3.09 | 1660 | 3.15 | 1570 | 3.08 | 1740 | 3.24
5 | CCC[CH2][Sn]([CH2]CCC)([O]C(=O)c1cccc(F)c1F)[O][Sn]([CH2]CCC)([CH2]CCC)[O]C(=O)c1cccc(F)c1F | 218 | 1.19 | – | – | 590 | 1.86 | 21.6 | 0.105 | 130 | 0.399 | 0.0371 | > 100 | 214 | 0.512 | 293 | 1.15 | 243 | 0.797 | 173 | 0.423
6 | C[C@]12CC[C@@H]3c4ccc(OCC(=O)O)cc4CC[C@H]3[C@@H]1CCC2=O | – | > 100 | – | 4.48 | – | > 100 | – | > 100 | – | > 100 | – | – | – | > 100 | – | > 100 | – | > 100 | – | > 100
